Among the data in ChEMBL document CHEMBL1145665, “Tunicamycins, streptovirudins, and corynetoxins, a special subclass of nucleoside antibiotics” (J Nat Prod, 1983) are inhibition values, retold here.

The species named for test [1] is Sus scrofa. Description: Inhibition of pig aortic GlcNAc-1P-transferase-mediated […] formation at 0.5 to 1.5 ug/ml.
The species entered for test [2] is Sus scrofa. Description: Inhibition of pig aortic GlcNAc-1P-transferase-mediated […] formation at 50 to 100 ug/ml.

Broadly, the inhibition is the relative decrease from the control value, in per cent. As to `CC(=O)N[C@H]1[C@@H](O[C@@H]2O[C@H](C[C@H](O)[C@H]3O[C@@H](n4ccc(=O)[nH]c4=O)[C@H](O)[C@@H]3O)[C@H](O)[C@H](O)[C@H]2NC(=O)/C=C/CCCCCCC(C)C)O[C@H](CO)[C@@H](O)[C@@H]1O`, in the test listed under Sus scrofa [1], the inhibition was determined as 50%.

As to `CCC(C)CCCCCCCC/C=C/C(=O)N[C@H]1[C@H](O[C@H]2O[C@H](CO)[C@@H](O)[C@H](O)[C@H]2NC(C)=O)O[C@H](C[C@H](O)[C@H]2O[C@@H](N3CCC(=O)NC3=O)[C@H](O)[C@@H]2O)[C@H](O)[C@@H]1O` (stereo not given in full), in the test filed under Sus scrofa [2], the inhibition amounted to 50%.

For `CC(=O)N[C@H]1[C@@H](O[C@@H]2O[C@H](C[C@H](O)[C@H]3O[C@@H](N4CCC(=O)NC4=O)[C@H](O)[C@@H]3O)[C@H](O)[C@H](O)[C@H]2NC(=O)/C=C/CCCCCCCC(C)C)O[C@H](CO)[C@@H](O)[C@@H]1O`, the inhibition in the test filed under Sus scrofa [2] worked out at 50%.

Take `CC(=O)N[C@H]1[C@@H](O[C@@H]2O[C@H](C[C@H](O)[C@H]3O[C@@H](n4ccc(=O)[nH]c4=O)[C@H](O)[C@@H]3O)[C@H](O)[C@H](O)[C@H]2NC(=O)/C=C/CCCCCCCC(C)C)O[C@H](CO)[C@@H](O)[C@@H]1O`: in the test filed under Sus scrofa [1], the inhibition stood at 50%.

Turning to `CC(=O)N[C@H]1[C@@H](O[C@@H]2O[C@H](C[C@H](O)[C@H]3O[C@@H](N4CCC(=O)NC4=O)[C@H](O)[C@@H]3O)[C@H](O)[C@H](O)[C@H]2NC(=O)/C=C/CCCCCCC(C)C)O[C@H](CO)[C@@H](O)[C@@H]1O`, in the test filed under Sus scrofa [2], the inhibition was 50%.

As to `CCC(C)CCCCCC/C=C/C(=O)N[C@H]1[C@H](O[C@H]2O[C@H](CO)[C@@H](O)[C@H](O)[C@H]2NC(C)=O)O[C@H](C[C@H](O)[C@H]2O[C@@H](n3ccc(=O)[nH]c3=O)[C@H](O)[C@@H]2O)[C@H](O)[C@@H]1O` (stereo not given in full), the inhibition in the test listed under Sus scrofa [1] is 50%.

`CC(=O)N[C@H]1[C@@H](O[C@@H]2O[C@H](C[C@H](O)[C@H]3O[C@@H](n4ccc(=O)[nH]c4=O)[C@H](O)[C@@H]3O)[C@H](O)[C@H](O)[C@H]2NC(=O)/C=C/CCCCCCCCC(C)C)O[C@H](CO)[C@@H](O)[C@@H]1O` registered an inhibition in the test listed under Sus scrofa [1] of 50%.

The compound `CCC(C)CCCCCC/C=C/C(=O)N[C@H]1[C@H](O[C@H]2O[C@H](CO)[C@@H](O)[C@H](O)[C@H]2NC(C)=O)O[C@H](C[C@H](O)[C@H]2O[C@@H](N3CCC(=O)NC3=O)[C@H](O)[C@@H]2O)[C@H](O)[C@@H]1O` (stereo not given in full) gave an inhibition in the test listed under Sus scrofa [2] of 50%.

As for `CCC(C)CCCCCCCC/C=C/C(=O)N[C@H]1[C@H](O[C@H]2O[C@H](CO)[C@@H](O)[C@H](O)[C@H]2NC(C)=O)O[C@H](C[C@H](O)[C@H]2O[C@@H](n3ccc(=O)[nH]c3=O)[C@H](O)[C@@H]2O)[C@H](O)[C@@H]1O` (stereo not given in full), the inhibition in the test filed under Sus scrofa [1] was 50%.

`CC(=O)N[C@H]1[C@@H](O[C@@H]2O[C@H](C[C@H](O)[C@H]3O[C@@H](N4CCC(=O)NC4=O)[C@H](O)[C@@H]3O)[C@H](O)[C@H](O)[C@H]2NC(=O)/C=C/CCCCCCCCC(C)C)O[C@H](CO)[C@@H](O)[C@@H]1O` registered an inhibition in the test filed under Sus scrofa [2] of 50%.
